Experimental data as given in the NIST ThermoML archive (doi:10.1021/je200038n).
± gives the expanded uncertainty stated by the source.

Experiments:
[1] = molar heat capacity at constant pressure; settings: 3000 kPa, Liquid, Flow calorimetry
[2] = molar heat capacity at constant pressure; wn = mass fraction of the nth substance listed; settings: 3000 kPa, Liquid, Flow calorimetry, w1 = 1

SMILES | molar heat capacity at constant pressure ([1]; 304.17 K) [J/K/mol] | molar heat capacity at constant pressure ([1]; 314.14 K) [J/K/mol] | molar heat capacity at constant pressure ([1]; 324.11 K) [J/K/mol] | molar heat capacity at constant pressure ([1]; 334.09 K) [J/K/mol] | molar heat capacity at constant pressure ([2]; 304.17 K) [J/K/mol] | molar heat capacity at constant pressure ([2]; 314.14 K) [J/K/mol] | molar heat capacity at constant pressure ([2]; 324.11 K) [J/K/mol] | molar heat capacity at constant pressure ([2]; 334.09 K) [J/K/mol]
N [ammonia] | 82.46 ± 0.53 | 83.45 ± 0.53 | 85.83 ± 0.53 | 89.36 ± 0.53 |  |  |  | 
N [ammonia] + N#C[S-].[Na+] |  |  |  |  | 82.46 ± 0.53 | 83.45 ± 0.53 | 85.83 ± 0.53 | 89.36 ± 0.53
